Entries after “also recorded” stand apart in the source; their conditions may differ.

This is an account of results in patent publication US20240342116A1, “TARGETING SOX10+ BONE MARROW GLIAL CELLS FOR TREATING MYELOFIBROSIS” (The Trustees of Columbia University in the City of New York, priority 2023, published 2024).

Data set [1] relates to Sox10+ glial cells / ErbB3+ glial cells. Briefly: Use examples: treatment of a subject with myelofibrosis. To be noted: after one or more doses.
Experimental: The subject is treated with a combined Jak inhibition and ErbB3 pathway inhibition, using, e.g., an antibody or antibody fragment agent which blocks ErbB3. […] The combined treatment targets both the hematopoietic compartment and the bone marrow niche.
The test system of data set [2] is Sox10+ glial cells in the bone marrow. Briefly: Bone marrow glial cell ablation (chemical sympathectomy) with 6-OHDA in the MPLW515L PMF model.
The target in data set [3] is T1, alarmin complex (S100A8/A9) (Mus musculus, UniProt P31725).
T1 sequence (P31725 2-113 limits assumed): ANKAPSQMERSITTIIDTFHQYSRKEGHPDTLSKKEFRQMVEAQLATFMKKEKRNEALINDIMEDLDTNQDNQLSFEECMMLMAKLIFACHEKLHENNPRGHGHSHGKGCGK
To be noted: reference 63; cited from earlier work.

Consider `NCCc1cc(O)c(O)cc1O` [6-OHDA, 6-hydroxydopamine], for which the “symptom(s) of myelofibrosis” value in data set [1] was “one or more improvements”. Besides, the “depletion of Sox10+ glial cells in the bone marrow” value in data set [2] (6-OHDA-treated mice) was “efficiently depleted”. Also, in data set [2] (6-OHDA-treated mice, 50 mg/kg i.v. twice on alternating days), the body weight loss result is recorded as “no significant body weight loss”. In addition, in data set [2] (MPLW515L PMF mice vs vehicle), the bone marrow cellularity entry is given as “significant increase”, the “liver size / weight” value is “reduced; also recorded: decreased” and the “spleen size / weight” value is “reduced; also recorded: decreased”. For the same compound, the bone marrow fibrosis result in data set [2] (MPLW515L PMF mice vs vehicle-treated control) was “significantly reduced; also recorded: ameliorated”. The “levels of active TGF-β in the bone marrow” value in data set [2] (bone marrow fluid, ELISA, MPLW515L PMF mice vs vehicle) is listed as “significantly reduced”. Further, the “levels of active TGF-β in the serum” value in data set [2] (serum, ELISA, MPLW515L PMF mice vs vehicle) is recorded as “without affecting”.

Regarding `COc1cccc2c1c(O)c(C(=O)N(C)c1ccc(C(F)(F)F)cc1)c(=O)n2C` [tasquinimod], the PMF features entry in data set [3] is given as “ameliorated”.
